Tests used:
Format in all cases: cell-based, human
[1] = system: L1 activity in LNCaP prostate cancer cells; test: L1-EGFP retrotransposition reporter assay; settings: carboplatin 5 μM or ENZ 10 μM, 5 days, FIG. 3A
Procedure: FIG. 3. […] (A) The effects of carboplatin (5 μM) or enzalutamide (ENZ, 10 μM) on L1 activity in LNCaP prostate cancer cells analyzed using a retrotransposition L1-EGFP reporter assay and IncuCyte S3 imaging equipped with a green fluorescence channel. Representative IncuCyte cell images are shown for untreated, ENZ, and carboplatin exposed LNCaP cells with green channel only (L1-EGFP) and phase contrast. The control plasmids used included two negative controls (L1Neg-EGFP and L1Mut-EGFP) and a positive control plasmid (L1Pos-EGFP). […] See also FIG. 8. (B) The effects of carboplatin or ENZ on ORF1 and ORF2 mRNA expression in LNCaP, VCaP, PC-3, and 22Rv1 prostate cancer cells. (C) L1 ORF1 and ORF2 mRNA levels from pre- and post-castration xenograft samples from LuCaP 77 and LuCaP 105 (23). […]
FIG. 8. […] (A) The effects of carboplatin (5 μM) or enzalutamide (ENZ, 10 μM) on L1 activity in LNCaP prostate cancer cells analyzed using a retrotransposition L1-EGFP reporter assay and IncuCyte S3 imaging system equipped with a green fluorescence channel. […]
Carboplatin or enzalutamide dissolved in DMSO and culture medium without FBS was added after a 24-hour initial incubation period. […] LNCaP prostate cancer cells were transfected with L1 plasmid or positive and negative control plasmids and treated with carboplatin (5 μM) or ENZ (10 μM) the day after transfection, and cells were monitored for five days. […]

[2] = system: L1 ORF1 and ORF2 mRNA in LNCaP cells; test: qPCR of L1 ORF1 and ORF2 mRNA; settings: for ORF1 and ORF2 mRNA expression compared to control treated cells: 5 days, alone or in combination, AZT 50 μM
Procedure: Carboplatin or enzalutamide dissolved in DMSO and culture medium without FBS was added after a 24-hour initial incubation period. To control cells DMSO diluted in culture medium was added to a final concentration of 0.02%. […]
(§1) The isolation of RNA from cell lines was conducted using TriPure Isolation Reagent (Roche) following the manufacturer's protocol. The concentration of the RNA samples was measured using NanoDrop™ One/OneC Microvolume UV-Vis Spectrophotometer, followed by dilution of the samples to 1 μg/μl. The conversion of 1 μg of RNA to cDNA was done using Transcriptor First Strand cDNA Synthesis Kit (Roche) according to the manufacturer's instructions. The RT-PCR run was performed using LightCycler™ 480 SYBR Green I Master (Roche) and The LightCycler® 480 Real-Time PCR System (Roche) with 96-multiwell format. To allow separate analysis of ORF1 and ORF2, two sets of primer pairs were designed to target the L1RP-ORF1 (ORF1 mRNA thereafter), L1RP-ORF2 (ORF2 mRNA thereafter) and FANCI (Table 2). Each run included two biological and two technical replicates per treatment with fold change calculated based on the obtained Ct-values. Normalization was done against GAPDH values measured (Table 2).

[3] = system: L1 ORF1 and ORF2 mRNA in VCaP cells; test: qPCR of L1 ORF1 and ORF2 mRNA; settings: for increase in ORF1 and ORF2 expression: 5-day treatment, carboplatin 5 μM or ENZ 10 μM, FIG. 3B
Procedure: Carboplatin or enzalutamide dissolved in DMSO and culture medium without FBS was added after a 24-hour initial incubation period. To control cells DMSO diluted in culture medium was added to a final concentration of 0.02%. LNCaP prostate cancer cells were transfected with L1 plasmid or positive and negative control plasmids and treated with carboplatin (5 μM) or ENZ (10 μM) the day after transfection, and cells were monitored for five days.
as §1

LNCaP cells = test: Cell proliferation assay (siRNA knockdown, cell confluence); settings: 10 μM carboplatin
Procedure: For cell proliferation assays, cells were reverse transfected with 25 nM siRNAs against FANCI (Dharmacon, ON-TARGETplus SMARTpool, L-022320-01-0005) or Scr control (Dharmacon, non-targeting pool), using OPTI-MEM and Lipofectamine 2000 transfection reagent (Invitrogen) in four biological replicates in a 384-well plate. LNCaP cells were plated on the wells (1000 cells/well) in antibiotic free regular growth medium. After 48 h, vehicle control (DMSO) or Carboplatin dilutions were added into wells in appropriate concentrations diluted in FBS free medium and the cell confluence was monitored for five days using live-cell imaging (IncuCyte S3, Sartorius). Cell confluence was determined by automatic counting using IncuCyte S3 Image analysis tools. Cell confluence (confluence mask) on each time point was calculated based on phase-contrast imaging with a minimum area filter of 150 μm2, segmentation adjustment of 1.0, 100 μm2 cleanup and size adjust of −2 pixels. Confluence curves were compared for statistical differences between treatment conditions at each timepoint using t-test.

L1 ORF1p in LNCaP cells = test: Western blot of L1 ORF1 protein; settings: carboplatin alone, or carboplatin with further addition of AZT, FIG. 9D
Procedure: FIG. 9. Further validation of L1 activation and suppression. (A) L1 mRNA levels from pre- and post-castration samples from LuCaP 77 and LuCaP 105 (16). […] Asterisks indicate significant differences between treatment conditions based on t-test (*, p<0.05; **, p<0.01; ***, p<0.001).
Whole cell lysates were prepared using SDS sample buffer (66 mM Tris-HCl pH 6.8, 13% Glyserol, 2.1% SDS and 0.01% Bromophenol Blue) with protease inhibitor added (cOmplete™ Protease Inhibitor Cocktail, Roche).

Row | SMILES | L1 retrotransposition (L1-EGFP reporter, green fluorescence) [1] | ORF1 and ORF2 mRNA induction ([2]; 25-day incubation, ENZ alone or with AZT, FIG. 3D) [fold] | ORF1 and ORF2 mRNA expression compared to control treated cells ([2]; FIG. 3D) | increase in ORF1 and ORF2 expression [3] [fold] | proliferation of siFANCI LNCaP cells on carboplatin exposure (LNCaP cells) | increase in ORF1 and ORF2 expression ([2]; 5-day treatment, carboplatin 5 μM, FIG. 3B) | ORF1 and ORF2 mRNA expression compared to control treated cells ([3]; 5 days, alone or in combination, AZT 50 μM, FIG. 3D) [fold] | level of L1 ORF1p (Western blot) (L1 ORF1p in LNCaP cells)
1 | CNC(=O)c1ccc(N2C(=S)N(c3ccc(C#N)c(C(F)(F)F)c3)C(=O)C2(C)C)cc1F [ENZ, enzalutamide] | relative increase in L1-EGFP reporter, below statistical significance | 8 | no significant changes | 5.5 |  |  |  | 
2 | N.N.O=C([O-])C1(C(=O)[O-])CCC1.[Pt+2] [carboplatin] | L1 retrotransposition indicated by green fluorescence appeared |  | approximately 4 fold | 7 | significantly decreased proliferation | approximately 4 fold | ~9 | significantly increased

Source: patent US12123060B2, “Method for identifying targets for precision cancer therapy” (Tampere University Foundation sr, priority 2021, dated 2024)
